Test [1] deals with Cyclin-dependent kinase 2 (Homo sapiens, UniProt P24941). Put plainly: Inhibition of Cyclin-dependent kinase 2.
Test [2] can be described thus: Inhibitory activity against thrombin.

Structures are written as SMILES.

`O=C1NC2C=CC=CC2/C1=C/Nc1ccc(S(=O)(=O)Nc2nccs2)cc1` (stereo not given): the IC50 in test [1] came out at 1000 nM.
As to `Cc1cc(NS(=O)(=O)c2ccccc2)cc(OCCNc2ccncc2)c1`, in test [2], the Ki turned out to be 23 nM.
The same measure, in the same setting: as for `N=C(N)NCCC[C@H](NC(=O)[C@@H]1CCN2CC[C@@](N)(Cc3ccccc3)C(=O)N12)C(=O)c1nccs1`, the figure is 2 nM; as for `N=C(N)c1ccc(C[C@@H](NC(=O)CNS(=O)(=O)c2ccc3ccccc3c2)C(=O)N2CCCCC2)cc1`, 7 nM.
Still for that read-out and setting: the figure for `C[C@@H]1CCN(C(=O)[C@H](CCCNC(=N)N)NS(=O)(=O)c2cccc3c2NC[C@H](C)C3)[C@@H](C(=O)O)C1` [ARGATROBAN] is 1 nM.

Source of the values: ChEMBL document CHEMBL1144417, “Conformation mining: an algorithm for finding biologically relevant conformations” (J Med Chem, 2005).
